According to ChEMBL document CHEMBL3885861, “Open TG-GATES”:

Species: Rattus norvegicus
Experiment: Open TG-GATES - Regimen: Daily Repeat
Format: toxicity, organism-based, Sprague-Dawley
Parameters: regimen Daily Repeat, gender Male, age 6 weeks
Conditions: in vivo, po, 30 mg/kg, route gavage, dose level Middle; for APTT / Bas / Eos / Fbg / Hb / Ht / Lym / MCH / MCHC / MCV / Mono / Neu / PT / Plat / RBC / Ret / WBC: tissue Blood; for KIDNEY_L / KIDNEY_R / KIDNEY_TOTAL: tissue Kidney; for LIVER: tissue Liver; for A/G / ALP / ALT / AST / BUN / CRE / Ca / Cl / DBIL / GLC / IP / K / LDH / Na / PL / RALB / TBIL / TC / TG / TP / gamma-GTP: tissue Plasma

In the case of `CN(C)CCN(Cc1cccs1)c1ccccn1`, the TERMINAL_BW (72 h, time 3 day) is reported as 210.2 g, the APTT (72 h, time 3 day) is reported as 20.9 s and the Bas (72 h, time 3 day) is reported as 0%. It also gave an Eos (72 h, time 3 day) of 0.6%, a Fbg (72 h, time 3 day) of 325.4 mg/dL and a Hb (72 h, time 3 day) of 13.2 g/dL. For the same compound, the Ht (72 h, time 3 day) was 38.8%, the Lym (72 h, time 3 day) was 80% and the MCH (72 h, time 3 day) was 21.7 pg. The MCHC (72 h, time 3 day) was 34%, the MCV (72 h, time 3 day) was 63.8 fL and the Mono (72 h, time 3 day) was 2%. For the same compound, the Neu (72 h, time 3 day) was 16.4%, the PT (72 h, time 3 day) was 15.9 s and the Plat (72 h, time 3 day) was 116.7 x10_4/uL. It also gave an RBC (72 h, time 3 day) of 609 x10_4/ul, a Ret (72 h, time 3 day) of 6.1% and a WBC (72 h, time 3 day) of 94.3 x10_2/uL. The KIDNEY_L (72 h, time 3 day) was 1 g, the KIDNEY_R (72 h, time 3 day) was 1 g and the KIDNEY_TOTAL (72 h, time 3 day) was 2 g. The LIVER (72 h, time 3 day) was 10.2 g, the A/G (72 h, time 3 day) was 1.2 and the ALP (72 h, time 3 day) was 1737.4 IU/L. For the same compound, the ALT (72 h, time 3 day) was 45.2 IU/L, the AST (72 h, time 3 day) was 75.8 IU/L and the BUN (72 h, time 3 day) was 15 mg/dL. It also gave a CRE (72 h, time 3 day) of 0.1 mg/dL, a Ca (72 h, time 3 day) of 11 mg/dL and a Cl (72 h, time 3 day) of 106.2 meq/L. The DBIL (72 h, time 3 day) was 0 mg/dL, the GLC (72 h, time 3 day) was 175.4 mg/dL and the IP (72 h, time 3 day) was 7.7 mg/dL. For the same compound, the K (72 h, time 3 day) was 4.3 meq/L, the LDH (72 h, time 3 day) was 224.4 IU/L and the Na (72 h, time 3 day) was 142 meq/L. The PL (72 h, time 3 day) was 140.8 mg/dL, the RALB (72 h, time 3 day) was 2.9 g/dL and the TBIL (72 h, time 3 day) was 0.012 mg/dL. For the same compound, the TC (72 h, time 3 day) was 72.6 mg/dL, the TG (72 h, time 3 day) was 82 mg/dL and the TP (72 h, time 3 day) was 5.4 g/dL. It also gave a gamma-GTP (72 h, time 3 day) of 1.2 IU/L, a TERMINAL_BW ([…], time 7 day) of 254.5 g and a TERMINAL_BW ([…], time 14 day) of 275 g. For the same compound, the TERMINAL_BW ([…], time 28 day) was 322.8 g, the APTT ([…], time 7 day) was 20.7 s and the Bas ([…], time 7 day) was 0%. For the same compound, the Eos ([…], time 7 day) was 0.8%, the Fbg ([…], time 7 day) was 304.2 mg/dL and the Hb ([…], time 7 day) was 13.2 g/dL. It also gave a Ht ([…], time 7 day) of 39.1%, a Lym ([…], time 7 day) of 78.6% and an MCH ([…], time 7 day) of 21.4 pg. It also gave an MCHC ([…], time 7 day) of 33.7%, an MCV ([…], time 7 day) of 63.5 fL and a Mono ([…], time 7 day) of 1.6%. For the same compound, the Neu ([…], time 7 day) was 18%, the PT ([…], time 7 day) was 15.9 s and the Plat ([…], time 7 day) was 120.9 x10_4/uL. The RBC ([…], time 7 day) was 617 x10_4/ul, the Ret ([…], time 7 day) was 6.3% and the WBC ([…], time 7 day) was 124 x10_2/uL. It also gave an APTT ([…], time 14 day) of 21.4 s, a Bas ([…], time 14 day) of 0% and an Eos ([…], time 14 day) of 1%. For the same compound, the Fbg ([…], time 14 day) was 309.6 mg/dL, the Hb ([…], time 14 day) was 14.2 g/dL and the Ht ([…], time 14 day) was 41.2%. It also gave a Lym ([…], time 14 day) of 77.8%, an MCH ([…], time 14 day) of 20.5 pg and an MCHC ([…], time 14 day) of 34.4%. The MCV ([…], time 14 day) was 59.6 fL, the Mono ([…], time 14 day) was 2.4% and the Neu ([…], time 14 day) was 18.6%. For the same compound, the PT ([…], time 14 day) was 16.2 s, the Plat ([…], time 14 day) was 108.7 x10_4/uL and the RBC ([…], time 14 day) was 691.6 x10_4/ul. It also gave a Ret ([…], time 14 day) of 3.9%, a WBC ([…], time 14 day) of 110.7 x10_2/uL and an APTT ([…], time 28 day) of 20.7 s. It also gave a Bas ([…], time 28 day) of 0%, an Eos ([…], time 28 day) of 1.4% and a Fbg ([…], time 28 day) of 282 mg/dL. The Hb ([…], time 28 day) was 14.6 g/dL, the Ht ([…], time 28 day) was 42.2% and the Lym ([…], time 28 day) was 74.2%. The MCH ([…], time 28 day) was 19.2 pg, the MCHC ([…], time 28 day) was 34.5% and the MCV ([…], time 28 day) was 55.5 fL. It also gave a Mono ([…], time 28 day) of 2.6%, a Neu ([…], time 28 day) of 21.4% and a PT ([…], time 28 day) of 16.1 s. The Plat ([…], time 28 day) was 106.9 x10_4/uL, the RBC ([…], time 28 day) was 760.6 x10_4/ul and the Ret ([…], time 28 day) was 2.7%. The WBC ([…], time 28 day) was 115.8 x10_2/uL, the KIDNEY_L ([…], time 7 day) was 1.1 g and the KIDNEY_R ([…], time 7 day) was 1.1 g. It also gave a KIDNEY_TOTAL ([…], time 7 day) of 2.2 g, a KIDNEY_L ([…], time 14 day) of 1.1 g and a KIDNEY_R ([…], time 14 day) of 1.2 g. The KIDNEY_TOTAL ([…], time 14 day) was 2.3 g, the KIDNEY_L ([…], time 28 day) was 1.3 g and the KIDNEY_R ([…], time 28 day) was 1.3 g. The KIDNEY_TOTAL ([…], time 28 day) was 2.5 g, the LIVER ([…], time 7 day) was 11.7 g and the LIVER ([…], time 14 day) was 11.9 g. The LIVER ([…], time 28 day) was 13.7 g, the A/G ([…], time 7 day) was 1.1 and the ALP ([…], time 7 day) was 1578.6 IU/L. It also gave an ALT ([…], time 7 day) of 40.4 IU/L, an AST ([…], time 7 day) of 69.2 IU/L and a BUN ([…], time 7 day) of 17.6 mg/dL. It also gave a CRE ([…], time 7 day) of 0.2 mg/dL, a Ca ([…], time 7 day) of 10.7 mg/dL and a Cl ([…], time 7 day) of 107 meq/L. For the same compound, the DBIL ([…], time 7 day) was 0 mg/dL, the GLC ([…], time 7 day) was 170.4 mg/dL and the IP ([…], time 7 day) was 7 mg/dL. For the same compound, the K ([…], time 7 day) was 4.3 meq/L, the LDH ([…], time 7 day) was 132.4 IU/L and the Na ([…], time 7 day) was 144.4 meq/L. The PL ([…], time 7 day) was 134.4 mg/dL, the RALB ([…], time 7 day) was 2.9 g/dL and the TBIL ([…], time 7 day) was 0.012 mg/dL. It also gave a TC ([…], time 7 day) of 71.4 mg/dL, a TG ([…], time 7 day) of 64.8 mg/dL and a TP ([…], time 7 day) of 5.4 g/dL. For the same compound, the gamma-GTP ([…], time 7 day) was 1.8 IU/L, the A/G ([…], time 14 day) was 1.1 and the ALP ([…], time 14 day) was 1753 IU/L. The ALT ([…], time 14 day) was 54.4 IU/L, the AST ([…], time 14 day) was 98.2 IU/L and the BUN ([…], time 14 day) was 18.8 mg/dL. It also gave a CRE ([…], time 14 day) of 0.2 mg/dL, a Ca ([…], time 14 day) of 10.3 mg/dL and a Cl ([…], time 14 day) of 107.8 meq/L. The DBIL ([…], time 14 day) was 0.008 mg/dL, the GLC ([…], time 14 day) was 166.8 mg/dL and the IP ([…], time 14 day) was 6.8 mg/dL. The K ([…], time 14 day) was 4.1 meq/L, the LDH ([…], time 14 day) was 177.4 IU/L and the Na ([…], time 14 day) was 143.8 meq/L. For the same compound, the PL ([…], time 14 day) was 131.8 mg/dL, the RALB ([…], time 14 day) was 2.9 g/dL and the TBIL ([…], time 14 day) was 0.026 mg/dL. For the same compound, the TC ([…], time 14 day) was 70.2 mg/dL, the TG ([…], time 14 day) was 56 mg/dL and the TP ([…], time 14 day) was 5.5 g/dL. For the same compound, the gamma-GTP ([…], time 14 day) was 2 IU/L, the A/G ([…], time 28 day) was 1.1 and the ALP ([…], time 28 day) was 1511.8 IU/L. For the same compound, the ALT ([…], time 28 day) was 74.6 IU/L, the AST ([…], time 28 day) was 129.2 IU/L and the BUN ([…], time 28 day) was 17.6 mg/dL. It also gave a CRE ([…], time 28 day) of 0.2 mg/dL, a Ca ([…], time 28 day) of 10.3 mg/dL and a Cl ([…], time 28 day) of 107 meq/L. The DBIL ([…], time 28 day) was 0.008 mg/dL, the GLC ([…], time 28 day) was 169 mg/dL and the IP ([…], time 28 day) was 6.2 mg/dL. For the same compound, the K ([…], time 28 day) was 4.2 meq/L, the LDH ([…], time 28 day) was 182.2 IU/L and the Na ([…], time 28 day) was 141.8 meq/L. It also gave a PL ([…], time 28 day) of 140.4 mg/dL, an RALB ([…], time 28 day) of 3 g/dL and a TBIL ([…], time 28 day) of 0.022 mg/dL. The TC ([…], time 28 day) was 80 mg/dL, the TG ([…], time 28 day) was 39.4 mg/dL and the TP ([…], time 28 day) was 5.6 g/dL. It also gave a gamma-GTP ([…], time 28 day) of 2.8 IU/L.
